According to patent US20040198833A1, “Acetylenic sulfonamide derivatives” (priority 2000, published 2004):

- melting point: 92 to 93 °C
Structure (SMILES): CC(C)S(=O)(=O)NCC(C)(F)c1ccc(C#CCCCCO)cc1 (stereo not shown) [Example 11, {2-fluoro-2-[4-(6-hydroxyhex-1-ynyl)phenyl]propyl}[(methylethyl)sulfonyl]amine]
